Experimental data as given in a compilation of properties of binary mixtures (doi:10.3866/pku.whxb202001015).

Assay: xn = mol fraction of the nth substance listed
Conditions: 293.15 K, 101.3 kPa

CC(=O)[O-].Cn1cc[nH+]c1 + O
Conditions | electrical conductivity [S/m]
x2 = 0 | 0.326
x2 = 0.2845 | 2.06
x2 = 0.4277 | 3.44
x2 = 0.5098 | 4.31
x2 = 0.6959 | 6.95
x2 = 0.8691 | 9.7
x2 = 0.8823 | 8.7
x2 = 0.9207 | 5.18
x2 = 0.9425 | 2.9
x2 = 0.9559 | 1.7
x2 = 0.9677 | 0.849

CC(=O)[O-].Cn1cc[nH+]c1 + CCO
Conditions | electrical conductivity [S/m]
x2 = 0.0616 | 0.449
x2 = 0.0975 | 0.527
x2 = 0.2701 | 0.821
x2 = 0.3985 | 1.33
x2 = 0.4978 | 1.7
x2 = 0.6604 | 2.27
x2 = 0.7397 | 2.34
x2 = 0.7865 | 1.92
x2 = 0.8291 | 1.52
x2 = 0.8486 | 1.31
x2 = 0.9522 | 0.312
x2 = 0.9648 | 0.199
x2 = 0.9725 | 0.139
